Results reported in patent publication US10807944B2, “HDAC inhibitor compounds and methods of treatment” (priority 2014, dated 2020).

Key:
[1] = biological target: T1, HDAC1 (Homo sapiens (Human), UniProt Q13547); experiment: HDAC1 in vitro inhibition, dose response; type: biochemical; settings: Table 2; read-out: HDAC 1 IC50
[2] = biological target: HDAC3 (Homo sapiens (Human), UniProt O15379); experiment: HDAC3 in vitro inhibition, dose response; type: biochemical; settings: Table 2; read-out: HDAC 3 IC50
HDAC3, sequence (O15379 whole entry): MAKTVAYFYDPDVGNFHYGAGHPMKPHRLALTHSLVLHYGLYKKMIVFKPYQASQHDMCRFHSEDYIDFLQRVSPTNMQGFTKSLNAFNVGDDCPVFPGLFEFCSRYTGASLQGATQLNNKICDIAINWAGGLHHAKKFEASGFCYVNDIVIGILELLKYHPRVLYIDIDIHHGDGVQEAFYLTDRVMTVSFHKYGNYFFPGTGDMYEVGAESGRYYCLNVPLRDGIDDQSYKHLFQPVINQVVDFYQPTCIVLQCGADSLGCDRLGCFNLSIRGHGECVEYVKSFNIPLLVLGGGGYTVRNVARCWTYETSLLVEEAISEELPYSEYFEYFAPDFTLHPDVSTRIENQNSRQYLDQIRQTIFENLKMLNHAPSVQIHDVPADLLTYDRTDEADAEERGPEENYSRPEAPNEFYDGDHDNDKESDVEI
HDAC3, sequence (Q9Y618 395-489 partner): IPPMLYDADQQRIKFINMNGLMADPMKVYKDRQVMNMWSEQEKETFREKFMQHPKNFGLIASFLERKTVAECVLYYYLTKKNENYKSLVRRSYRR

[3] = biological target: T2, HDAC2 (Homo sapiens (Human), UniProt Q92769); experiment: HDAC2 in vitro inhibition, dose response; type: biochemical; settings: Table 2; read-out: HDAC 2 IC50
T2 sequence (Q92769 whole entry): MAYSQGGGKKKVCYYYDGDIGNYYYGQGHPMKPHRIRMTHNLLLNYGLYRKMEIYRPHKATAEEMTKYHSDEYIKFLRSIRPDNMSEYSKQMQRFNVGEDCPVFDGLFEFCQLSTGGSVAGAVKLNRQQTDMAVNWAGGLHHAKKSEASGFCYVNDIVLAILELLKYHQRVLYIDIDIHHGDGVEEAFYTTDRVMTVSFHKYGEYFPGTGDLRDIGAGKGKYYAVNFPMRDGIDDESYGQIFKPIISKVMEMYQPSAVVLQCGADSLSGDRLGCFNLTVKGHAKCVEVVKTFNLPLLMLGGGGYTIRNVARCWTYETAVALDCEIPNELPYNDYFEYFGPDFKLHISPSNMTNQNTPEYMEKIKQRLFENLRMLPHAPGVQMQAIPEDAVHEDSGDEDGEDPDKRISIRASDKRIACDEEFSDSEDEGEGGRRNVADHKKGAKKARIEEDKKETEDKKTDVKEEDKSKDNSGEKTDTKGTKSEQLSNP

[4] = biological target: HDAC6 (Homo sapiens (Human), UniProt Q9UBN7); experiment: HDAC6 in vitro inhibition, dose response; type: biochemical; settings: Table 2; read-out: HDAC 6 IC50
HDAC6, sequence (Q9UBN7 whole entry): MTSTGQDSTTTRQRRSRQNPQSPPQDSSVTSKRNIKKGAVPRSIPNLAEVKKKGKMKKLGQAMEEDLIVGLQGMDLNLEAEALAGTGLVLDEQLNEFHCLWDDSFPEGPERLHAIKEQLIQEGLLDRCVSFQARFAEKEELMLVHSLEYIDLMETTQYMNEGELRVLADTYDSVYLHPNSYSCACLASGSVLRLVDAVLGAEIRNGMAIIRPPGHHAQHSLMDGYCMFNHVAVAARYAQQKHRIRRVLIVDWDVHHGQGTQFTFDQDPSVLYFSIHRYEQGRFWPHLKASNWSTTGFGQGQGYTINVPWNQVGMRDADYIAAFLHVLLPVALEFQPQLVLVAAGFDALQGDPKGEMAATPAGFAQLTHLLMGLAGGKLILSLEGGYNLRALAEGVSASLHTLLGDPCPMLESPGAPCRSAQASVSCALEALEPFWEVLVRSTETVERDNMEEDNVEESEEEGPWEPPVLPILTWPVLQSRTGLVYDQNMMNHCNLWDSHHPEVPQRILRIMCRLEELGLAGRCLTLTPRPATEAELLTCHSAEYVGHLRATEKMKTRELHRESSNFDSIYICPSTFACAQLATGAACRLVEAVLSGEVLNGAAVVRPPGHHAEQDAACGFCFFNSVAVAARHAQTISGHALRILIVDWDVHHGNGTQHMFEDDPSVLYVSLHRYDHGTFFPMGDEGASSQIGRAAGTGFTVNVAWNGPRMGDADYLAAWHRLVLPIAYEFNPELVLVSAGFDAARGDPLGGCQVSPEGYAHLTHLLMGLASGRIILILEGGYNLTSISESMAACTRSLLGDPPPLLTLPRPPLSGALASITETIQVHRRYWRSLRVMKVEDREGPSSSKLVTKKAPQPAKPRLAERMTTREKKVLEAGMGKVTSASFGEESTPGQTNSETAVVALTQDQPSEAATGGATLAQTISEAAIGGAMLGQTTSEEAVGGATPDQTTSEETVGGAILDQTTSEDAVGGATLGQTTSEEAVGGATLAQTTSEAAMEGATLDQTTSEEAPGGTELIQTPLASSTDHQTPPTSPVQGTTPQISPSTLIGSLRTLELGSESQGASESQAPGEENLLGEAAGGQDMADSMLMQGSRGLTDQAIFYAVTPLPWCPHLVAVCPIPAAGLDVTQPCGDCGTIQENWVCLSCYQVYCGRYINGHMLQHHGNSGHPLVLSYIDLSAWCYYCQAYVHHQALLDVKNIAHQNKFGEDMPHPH

[5] = 4b, 50 mg/kg dosed orally, ref (4); cited from earlier work
[6] = biological target: T2, HDAC2; experiment: HDAC-2 inhibition potency, luminescence readout; type: biochemical; settings: Table 6, luminescence readout
Text: (§1) Compounds were examined for their HDAC inhibitory activity and their effect on cancer cell viability (MDA-MB-231 cells).

[7] = biological target: T1, HDAC1; experiment: HDAC-1 inhibition potency, luminescence readout; type: biochemical; settings: Table 6, luminescence readout
Text: as §1

[8] = tested on: MDA-MB-231 cells; experiment: Cancer cell viability (CellTiter-Glo); type: cell-based; settings: Homo sapiens, MDA-MB-231, read-out: Cancer cell (MDA-MB-231) killing IC50
[9] = biological target: HDAC8 (Homo sapiens (Human), UniProt Q9BY41); experiment: HDAC8 in vitro inhibition, dose response; type: biochemical; settings: Table 2; read-out: HDAC 8 IC50
HDAC8, sequence (Q9BY41 whole entry): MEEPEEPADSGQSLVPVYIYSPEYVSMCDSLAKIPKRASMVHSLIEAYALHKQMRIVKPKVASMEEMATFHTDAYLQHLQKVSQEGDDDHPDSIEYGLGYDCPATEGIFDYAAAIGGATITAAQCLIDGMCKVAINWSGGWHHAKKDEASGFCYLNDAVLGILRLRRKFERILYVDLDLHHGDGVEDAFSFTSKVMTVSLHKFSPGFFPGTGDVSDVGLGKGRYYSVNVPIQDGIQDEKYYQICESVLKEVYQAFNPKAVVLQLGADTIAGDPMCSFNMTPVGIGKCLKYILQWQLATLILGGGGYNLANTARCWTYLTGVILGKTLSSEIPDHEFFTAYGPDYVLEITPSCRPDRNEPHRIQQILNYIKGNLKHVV

T1 sequence (Q13547 whole entry): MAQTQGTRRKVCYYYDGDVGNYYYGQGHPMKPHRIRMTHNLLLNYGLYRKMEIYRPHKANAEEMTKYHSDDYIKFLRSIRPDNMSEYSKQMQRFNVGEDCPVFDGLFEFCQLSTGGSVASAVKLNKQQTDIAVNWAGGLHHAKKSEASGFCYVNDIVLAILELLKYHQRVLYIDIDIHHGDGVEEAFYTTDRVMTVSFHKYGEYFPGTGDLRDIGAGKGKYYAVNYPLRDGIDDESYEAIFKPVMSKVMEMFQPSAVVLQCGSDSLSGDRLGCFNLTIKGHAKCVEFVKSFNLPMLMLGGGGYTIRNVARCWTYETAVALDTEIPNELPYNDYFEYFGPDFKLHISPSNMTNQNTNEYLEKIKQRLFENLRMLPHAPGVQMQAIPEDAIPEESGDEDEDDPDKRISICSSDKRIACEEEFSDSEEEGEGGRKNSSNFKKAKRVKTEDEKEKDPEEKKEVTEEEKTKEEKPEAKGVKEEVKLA

Row | SMILES | IC50 [1] [µM] | IC50 [2] [µM] | IC50 [3] [µM] | other results
1 | O=C(NNCC1CCCC1)c1ccc2ccccc2c1 [RLS2-254, N′-(cyclopentylmethyl)-2-naphthohydrazide] | > 50 | > 50 | > 50 | –
2 | CCCCNNC(=O)c1ccc(OC)c(OC)c1 [RLS3-11, N′-butyl-3,4-dimethoxybenzohydrazide] | 22.2 | 4 | 20.4 | –
3 | CCCCNNC(=O)c1cccnc1 [RLS2-289, N′-butylnicotinohydrazide] | 14.5 | 4.35 | 56.7 | –
4 | CCCCNNC(=O)c1ccc2ccccc2c1 [RLS2-238, N′-butyl-2-naphthohydrazide] | 4.3 | – | 5.92 | –
5 | CCCCNNC(=O)c1ccc(-c2cc(C(=O)OCC)ccc2F)cc1 [SR-4373, ethyl 4′-(2-butylhydrazinecarbonyl)-6-fluorobiphenyl-3-carboxylate] | 1.3 | 0.42 | – | IC50 [4]: 6.5 µM
6 | CCCCNNC(=O)c1ccc(OC(F)(F)F)cc1 [RLS2-124, N′-butyl-4-(trifluoromethoxy)benzohydrazide] | 8.86 | 1.35 | 9.09 | –
7 | CCCCNNC(=O)c1ccc(OCC)c(OCC)c1 [RLS3-14, N′-butyl-3,4-diethoxybenzohydrazide] | 11.8 | 0.8 | 7.4 | –
8 | CCNNC(=O)c1ccc2ccccc2c1 [RLS2-240, N′-ethyl-2-naphthohydrazide] | > 50 | > 50 | > 50 | –
9 | CCCCNNC(=O)c1ccccc1F [RLS2-305, N′-butyl-2-fluorobenzohydrazide] | 72.3 | 42.4 | 79.6 | –
10 | CCCCNNC(=O)c1ccncc1 [RLS2-290, N′-butylisonicotinohydrazide] | 4.28 | 1.4 | 13.7 | –
11 | CCCCNNC(=O)c1cccc(OCC)c1 [RLS2-303, N′-butyl-3-ethoxybenzohydrazide] | > 50 | > 50 | > 50 | –
12 | Nc1ccccc1NC(=O)CCCCCC(=O)Nc1ccccc1 [Compound 4b] | – | – | – | AUC [5]: 1.08 µM·h; Cmax [5]: 1130 nM; T1/2 [5]: 2.76 h; Tmax [5]: 0.25 h
13 | Cc1ccc(C(=O)NNC(C)(C)C)cc1 [RLS2-187, N′-tert-butyl-4-methylbenzohydrazide] | > 50 | > 50 | > 50 | –
14 | CCCCNNC(=O)c1ccc(-c2ccccc2)cc1 [SR-3558] | – | – | – | IC50 [6]: 0.8 µM; IC50 [7]: 0.09 µM; IC50 [8]: 12.3 µM
15 | CCCNNC(=O)c1ccc(Br)cc1 [RLS2-137, 4-bromo-N′-propylbenzohydrazide] | 1.7 | 0.22 | 3.88 | –
16 | CCCCNNC(=O)c1cccc(C(F)(F)F)c1 [RLS3-6, N′-butyl-3-(trifluoromethyl)benzohydrazide] | 35.3 | 1.88 | 93.3 | –
17 | CCCCNNC(=O)c1ccc(OC)c(OC)c1 [RLS3-20] | > 50 | 13.8 | 30.1 | –
18 | NNC(=O)c1ccc2ccccc2c1 [RLS2-243, 2-naphthohydrazide] | > 50 | > 50 | > 50 | –
19 | CCCCNNC(=O)c1ccc(C(C)(C)C)cc1 [RLS2-211, 4-tert-butyl-N′-butylbenzohydrazide] | 0.19 | 0.07 | 1.04 | IC50 [4]: 0.045 µM; IC50 [9]: 0.045 µM
20 | CCCCNNC(=O)c1ccc(CN=[N+]=[N-])cc1 [RLS2-312, 4-(azidomethyl)-N′-butylbenzohydrazide] | 0.32 | 0.15 | 0.527 | IC50 [4]: 0.009 µM
21 | CCCCNNC(=O)c1cccc(I)c1 [RLS3-5, N′-butyl-3-iodobenzohydrazide] | 31.4 | > 50 | 47 | –
22 | CCCCNNC(=O)c1ccc([N+](=O)[O-])cc1 [RLS2-128, N′-butyl-4-nitrobenzohydrazide] | 21.3 | 2.47 | 21.2 | –
